Source: ChEMBL document CHEMBL1158583, “3-(2-Aminocarbonylphenyl)propanoic acid analogs as potent and selective EP3 receptor antagonists. Part 3: Synthesis, metabolic stability, and biological evaluation of optically active analogs” (Bioorg Med Chem, 2010)

What was measured:
[1] = (§1) Volume of distribution at steady state in rat at […], iv; format: ADME, organism-based; set-up: dose 2.7 mg/kg, route intravenous; conditions: in vivo, read-out: Vdss
[2] = (§2) AUC in rat at 10 mg/kg, po; format: ADME, organism-based, Plasma; set-up: dose 10 mg/kg, route oral; conditions: plasma
[3] = (§3) AUC in rat at […], iv; format: ADME, organism-based; set-up: dose 2.7 mg/kg, route intravenous; conditions: plasma
[4] = as §3; format: ADME, organism-based; set-up: dose 1.2 mg/kg, route intravenous; conditions: plasma
[5] = (§4) Oral bioavailability in rat at 10 mg/kg; format: ADME, organism-based; conditions: in vivo
[6] = as §1; format: ADME, organism-based; set-up: dose 1.2 mg/kg, route intravenous; conditions: in vivo, read-out: Vdss
[7] = Cmax in rat at 10 mg/kg, po; format: ADME, organism-based; set-up: dose 10 mg/kg, route oral; conditions: in vivo
[8] = as §1; format: ADME, organism-based; set-up: dose 1.8 mg/kg, route intravenous; conditions: in vivo, read-out: Vdss
[9] = as §3; format: ADME, organism-based; set-up: dose 1.8 mg/kg, route intravenous; conditions: plasma
[10] = (§5) AUC in rat at 2 mg/kg, iv; format: ADME, organism-based, Plasma; set-up: dose 2 mg/kg, route intravenous; conditions: plasma
[11] = Volume of distribution at steady state in rat at 2 mg/kg, iv; format: ADME, organism-based; set-up: dose 2 mg/kg, route intravenous; conditions: in vivo, read-out: Vdss
Rattus norvegicus [12] = test: as §4; format: ADME, organism-based; conditions: in vivo
Rattus norvegicus [13] = test: as §2; format: ADME, organism-based, Plasma; set-up: dose 10 mg/kg, route oral; conditions: in vivo
Rattus norvegicus [14] = test: as §5; format: ADME, organism-based, Plasma; set-up: dose 2 mg/kg, route intravenous; conditions: in vivo

| Compound | AUC [2] [µg·h/mL] | bioavailability [5] [%] | Cmax [7] [µg/mL] | Vd [11] [L/kg] | other results |
| --- | --- | --- | --- | --- | --- |
| Cc1cc(C)cc(Oc2ccc(CCC(=O)O)c(C(=O)N[C@H](CC(C)C)c3cc(C)cc(C)c3)c2)c1 | 1.43 | 21 | 0.95 | 0.56 | AUC [10]: 1.37 µg·h/mL |
| Cc1cc(C)cc(Nc2ccc(CCC(=O)O)c(C(=O)N[C@H](CC(C)C)c3cc(C)cc(C)c3)c2)c1 | – | – | 1.37 | 1.03 | bioavailability (Rattus norvegicus [12]): 25%; AUC (Rattus norvegicus [13]): 3.27 µg·h/mL; AUC (Rattus norvegicus [14]): 2.67 µg·h/mL |

The next lines start with results.

| AUC [2] [µg·h/mL] | bioavailability [5] [%] | Cmax [7] [µg/mL] | Vd [11] [L/kg] | Compound | other results |
| --- | --- | --- | --- | --- | --- |
| 1.01 | – | – | – | Cc1cc(C)cc([C@@H](CC(C)C)NC(=O)c2cc(COc3ccccc3C)ccc2CCC(=O)O)c1 | Vd [1]: 1.24 L/kg; AUC [3]: 0.89 µg·h/mL |
| – | 18 | 0.19 | – | Cc1cc(C)cc([C@@H](CC(C)C)NC(=O)c2cc(COc3cc(F)ccc3F)ccc2CCC(=O)O)c1 | AUC [4]: 0.681 µg·h/mL; Vd [6]: 0.39 L/kg |
| 4.1 | 54 | 1.35 | – | Cc1cc(C)cc([C@@H](CC(C)C)NC(=O)c2cc(COc3cc(C)ccc3C)ccc2CCC(=O)O)c1 | Vd [8]: 0.67 L/kg; AUC [9]: 1.37 µg·h/mL |
